Assay results as given in publication PMC10382584, “Macrocyclization of linear molecules by deep learning to facilitate macrocyclic drug candidates discovery” (Nature Communications, 2023).

Key:
Assay in all cases: biochemical
Design in all cases: DiscoveRx KINOMEscan competition binding, percent of DMSO control signal at 100 nM
Conditions in all cases: read-out: Fig. 4a / Percent Control / Compound 1; percent of DMSO control, competition binding
MEK4 = biological target: T1, MEK4 (Homo sapiens, UniProt P45985)
T1 construct: gene MAP2K4

PIM2 = PIM2 (Homo sapiens, UniProt Q9P1W9)
MELK = MELK (Homo sapiens, UniProt Q14680)
EGFR(L858R,T790M) = EGFR(L858R,T790M) (Homo sapiens, UniProt P00533, L858R/T790M)
MAP4K2 = MAP4K2 (Homo sapiens, UniProt Q12851)
Chain of MAP4K2 (Q12851 whole entry): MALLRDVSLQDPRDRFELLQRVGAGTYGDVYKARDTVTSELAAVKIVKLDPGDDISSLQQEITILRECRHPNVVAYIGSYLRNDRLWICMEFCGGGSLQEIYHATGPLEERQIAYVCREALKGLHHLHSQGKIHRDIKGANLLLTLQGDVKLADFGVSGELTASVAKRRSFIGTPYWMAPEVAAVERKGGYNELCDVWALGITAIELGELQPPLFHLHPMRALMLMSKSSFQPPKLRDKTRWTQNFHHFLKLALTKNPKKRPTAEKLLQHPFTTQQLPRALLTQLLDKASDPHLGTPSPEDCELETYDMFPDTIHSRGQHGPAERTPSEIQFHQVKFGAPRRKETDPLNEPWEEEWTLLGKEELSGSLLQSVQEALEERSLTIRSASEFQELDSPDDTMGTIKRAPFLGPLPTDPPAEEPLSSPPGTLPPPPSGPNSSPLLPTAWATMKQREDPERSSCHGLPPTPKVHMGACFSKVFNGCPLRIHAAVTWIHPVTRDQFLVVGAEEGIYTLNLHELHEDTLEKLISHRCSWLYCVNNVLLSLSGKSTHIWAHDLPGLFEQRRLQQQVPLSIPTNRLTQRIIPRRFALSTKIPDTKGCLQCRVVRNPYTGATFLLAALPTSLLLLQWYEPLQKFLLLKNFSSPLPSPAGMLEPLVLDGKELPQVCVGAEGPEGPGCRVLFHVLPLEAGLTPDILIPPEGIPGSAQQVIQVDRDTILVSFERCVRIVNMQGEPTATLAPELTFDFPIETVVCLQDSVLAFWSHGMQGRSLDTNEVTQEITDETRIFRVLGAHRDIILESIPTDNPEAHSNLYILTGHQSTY

BRSK1 = BRSK1 (Homo sapiens, UniProt Q8TDC3)
Chain of BRSK1 (Q8TDC3 whole entry): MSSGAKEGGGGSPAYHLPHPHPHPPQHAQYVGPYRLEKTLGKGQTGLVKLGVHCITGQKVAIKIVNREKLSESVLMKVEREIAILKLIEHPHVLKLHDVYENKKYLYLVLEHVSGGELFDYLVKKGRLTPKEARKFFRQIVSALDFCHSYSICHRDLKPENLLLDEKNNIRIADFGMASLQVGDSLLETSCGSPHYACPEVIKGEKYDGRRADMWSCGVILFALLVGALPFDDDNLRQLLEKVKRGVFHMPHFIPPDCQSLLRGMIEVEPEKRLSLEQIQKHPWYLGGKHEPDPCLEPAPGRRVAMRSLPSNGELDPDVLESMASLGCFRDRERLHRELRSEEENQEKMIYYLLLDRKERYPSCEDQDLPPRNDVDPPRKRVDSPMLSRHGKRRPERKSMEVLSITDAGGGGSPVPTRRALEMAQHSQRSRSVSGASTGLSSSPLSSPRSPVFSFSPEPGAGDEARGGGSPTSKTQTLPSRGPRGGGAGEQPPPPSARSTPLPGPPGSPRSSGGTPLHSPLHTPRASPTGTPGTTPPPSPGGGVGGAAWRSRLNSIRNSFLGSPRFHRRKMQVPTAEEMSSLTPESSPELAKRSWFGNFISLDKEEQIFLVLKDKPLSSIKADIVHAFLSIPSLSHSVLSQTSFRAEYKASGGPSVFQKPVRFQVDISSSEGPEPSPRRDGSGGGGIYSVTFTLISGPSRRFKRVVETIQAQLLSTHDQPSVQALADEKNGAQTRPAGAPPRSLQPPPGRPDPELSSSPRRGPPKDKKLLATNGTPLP

EPHA1 = EPHA1 (Homo sapiens, UniProt P21709)
MLK3 = biological target: T2, MLK3 (Homo sapiens, UniProt Q16584)
T2 construct: gene MAP3K11

HIPK4 = HIPK4 (Homo sapiens, UniProt Q8NE63)
FLT3-autoinhibited = FLT3-autoinhibited (Homo sapiens, UniProt P36888)
WNK3 = WNK3 (Homo sapiens, UniProt Q9BYP7)
FLT3(D835V) = FLT3(D835V) (Homo sapiens, UniProt P36888, D835V)
WEE2 = WEE2 (Homo sapiens, UniProt P0C1S8)
ERBB2 = ERBB2 (Homo sapiens, UniProt P04626)
Chain of ERBB2 (P04626 whole entry): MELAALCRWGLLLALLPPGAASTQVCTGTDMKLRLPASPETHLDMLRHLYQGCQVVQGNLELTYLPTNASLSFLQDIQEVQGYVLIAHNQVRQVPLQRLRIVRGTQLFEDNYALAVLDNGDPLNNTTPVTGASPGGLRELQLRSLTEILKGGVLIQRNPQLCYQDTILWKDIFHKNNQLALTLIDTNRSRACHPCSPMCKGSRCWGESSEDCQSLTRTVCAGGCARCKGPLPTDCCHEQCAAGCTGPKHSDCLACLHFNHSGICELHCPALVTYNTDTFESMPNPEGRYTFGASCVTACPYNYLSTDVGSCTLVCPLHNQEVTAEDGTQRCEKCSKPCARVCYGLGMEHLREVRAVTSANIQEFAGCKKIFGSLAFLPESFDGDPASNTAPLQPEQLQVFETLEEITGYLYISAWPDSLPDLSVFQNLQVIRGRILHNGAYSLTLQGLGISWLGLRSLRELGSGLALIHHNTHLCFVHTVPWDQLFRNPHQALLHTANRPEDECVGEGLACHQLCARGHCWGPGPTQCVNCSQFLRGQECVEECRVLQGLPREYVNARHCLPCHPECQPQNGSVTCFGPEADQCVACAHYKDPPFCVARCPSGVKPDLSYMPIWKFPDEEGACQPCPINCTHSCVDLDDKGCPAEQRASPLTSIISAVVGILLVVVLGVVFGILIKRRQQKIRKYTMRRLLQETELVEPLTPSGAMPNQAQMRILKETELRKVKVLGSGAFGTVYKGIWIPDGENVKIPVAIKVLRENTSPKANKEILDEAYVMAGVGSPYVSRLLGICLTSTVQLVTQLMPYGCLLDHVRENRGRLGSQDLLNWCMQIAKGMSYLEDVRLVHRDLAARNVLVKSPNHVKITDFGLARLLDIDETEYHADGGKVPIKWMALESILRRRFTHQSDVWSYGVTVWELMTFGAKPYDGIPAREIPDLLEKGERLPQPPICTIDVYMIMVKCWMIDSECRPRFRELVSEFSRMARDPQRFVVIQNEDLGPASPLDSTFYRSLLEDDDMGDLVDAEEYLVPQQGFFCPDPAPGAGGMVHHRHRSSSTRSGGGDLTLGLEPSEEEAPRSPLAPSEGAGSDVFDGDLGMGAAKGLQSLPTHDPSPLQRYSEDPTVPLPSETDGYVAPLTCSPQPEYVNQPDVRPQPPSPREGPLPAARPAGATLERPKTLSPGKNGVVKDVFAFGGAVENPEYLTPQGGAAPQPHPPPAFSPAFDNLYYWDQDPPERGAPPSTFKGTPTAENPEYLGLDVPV

JNK2 = biological target: T3, JNK2 (Homo sapiens, UniProt P45984)
T3 construct: gene MAPK9
T3 sequence (P45984 whole entry): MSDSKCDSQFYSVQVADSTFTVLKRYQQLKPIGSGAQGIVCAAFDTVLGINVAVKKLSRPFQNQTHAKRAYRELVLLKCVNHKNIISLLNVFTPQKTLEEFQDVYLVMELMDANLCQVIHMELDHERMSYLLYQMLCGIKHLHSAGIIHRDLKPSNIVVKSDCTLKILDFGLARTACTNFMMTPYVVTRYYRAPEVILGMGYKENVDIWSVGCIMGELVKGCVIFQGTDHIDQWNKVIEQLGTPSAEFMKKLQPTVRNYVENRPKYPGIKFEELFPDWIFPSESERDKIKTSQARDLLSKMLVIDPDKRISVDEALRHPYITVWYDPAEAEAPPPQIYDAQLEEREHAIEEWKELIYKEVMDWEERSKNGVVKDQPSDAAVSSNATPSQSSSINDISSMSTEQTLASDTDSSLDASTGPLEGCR

BMPR1A = BMPR1A (Homo sapiens, UniProt P36894)
SIK = biological target: T4, SIK (Homo sapiens, UniProt P57059)
T4 construct: gene SIK1

ICK = biological target: T5, ICK (Homo sapiens, UniProt Q9UPZ9)
T5 construct: gene CILK1
T5 sequence (Q9UPZ9 whole entry): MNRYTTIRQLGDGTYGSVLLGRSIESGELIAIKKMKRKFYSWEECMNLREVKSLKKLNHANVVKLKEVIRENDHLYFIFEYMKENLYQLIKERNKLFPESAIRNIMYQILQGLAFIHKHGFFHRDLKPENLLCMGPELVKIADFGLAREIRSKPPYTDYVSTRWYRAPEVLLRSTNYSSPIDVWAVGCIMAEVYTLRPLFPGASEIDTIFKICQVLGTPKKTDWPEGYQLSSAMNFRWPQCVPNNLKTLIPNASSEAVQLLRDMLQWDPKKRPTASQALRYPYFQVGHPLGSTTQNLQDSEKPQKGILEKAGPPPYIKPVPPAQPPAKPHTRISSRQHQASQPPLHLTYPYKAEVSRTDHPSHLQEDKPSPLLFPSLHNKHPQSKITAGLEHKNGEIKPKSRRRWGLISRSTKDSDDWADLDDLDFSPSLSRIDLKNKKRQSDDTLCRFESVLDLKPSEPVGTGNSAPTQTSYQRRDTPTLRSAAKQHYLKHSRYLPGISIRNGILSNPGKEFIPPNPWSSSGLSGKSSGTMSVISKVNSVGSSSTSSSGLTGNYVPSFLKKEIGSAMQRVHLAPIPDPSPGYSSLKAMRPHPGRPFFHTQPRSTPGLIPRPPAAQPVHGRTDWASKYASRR

ULK2 = ULK2 (Homo sapiens, UniProt Q8IYT8)
MUSK = MUSK (Homo sapiens, UniProt O15146)
GRK2 = GRK2 (Homo sapiens, UniProt P25098)
Chain of GRK2 (P25098 whole entry): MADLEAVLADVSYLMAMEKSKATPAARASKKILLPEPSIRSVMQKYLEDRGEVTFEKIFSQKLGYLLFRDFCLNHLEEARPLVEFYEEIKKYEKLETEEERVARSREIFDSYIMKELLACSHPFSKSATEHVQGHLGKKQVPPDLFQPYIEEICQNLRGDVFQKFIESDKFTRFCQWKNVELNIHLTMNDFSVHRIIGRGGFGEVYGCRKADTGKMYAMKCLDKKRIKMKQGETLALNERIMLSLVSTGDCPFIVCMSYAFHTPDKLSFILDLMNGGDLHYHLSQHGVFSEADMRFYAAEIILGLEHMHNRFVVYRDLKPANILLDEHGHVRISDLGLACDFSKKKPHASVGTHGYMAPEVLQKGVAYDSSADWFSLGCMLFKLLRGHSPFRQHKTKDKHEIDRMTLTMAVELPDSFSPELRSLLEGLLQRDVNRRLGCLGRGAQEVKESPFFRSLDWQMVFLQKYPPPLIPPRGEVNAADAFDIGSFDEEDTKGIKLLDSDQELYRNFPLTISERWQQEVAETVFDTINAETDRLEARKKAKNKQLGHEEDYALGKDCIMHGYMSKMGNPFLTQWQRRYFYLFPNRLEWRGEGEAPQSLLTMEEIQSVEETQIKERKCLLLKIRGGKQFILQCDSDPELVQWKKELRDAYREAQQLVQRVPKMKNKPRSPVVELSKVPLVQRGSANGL

PIK3CA(H1047Y) = PIK3CA(H1047Y) (Homo sapiens, UniProt P42336, H1047Y)
CDK9 = CDK9 (Homo sapiens, UniProt P50750)
RIOK1 = RIOK1 (Homo sapiens, UniProt Q9BRS2)
TSSK3 = TSSK3 (Homo sapiens, UniProt Q96PN8)
Chain of TSSK3 (Q96PN8 whole entry): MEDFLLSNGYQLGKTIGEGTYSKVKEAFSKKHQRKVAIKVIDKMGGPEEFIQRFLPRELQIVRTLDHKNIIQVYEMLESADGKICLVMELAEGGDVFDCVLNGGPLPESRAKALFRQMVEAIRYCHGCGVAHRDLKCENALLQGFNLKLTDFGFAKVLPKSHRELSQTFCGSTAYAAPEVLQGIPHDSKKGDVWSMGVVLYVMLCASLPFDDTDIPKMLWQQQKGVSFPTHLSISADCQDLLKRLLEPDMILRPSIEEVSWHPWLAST
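Further: KINOMEscan kinase panel binding assay, signal normalized between DMSO as 100% and a positive control compound as 0%.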

Structure (SMILES): Cc1cnc2nc1Nc1cccc(c1)COCc1cc(ccc1OCCN1CCCC1)N2 [Compound 1]
- remaining binding at 0.1 µM (MEK4): 92%
- remaining binding at 0.1 µM (PIM2): 100%
- remaining binding at 0.1 µM (MELK): 100%
- remaining binding at 0.1 µM (EGFR(L858R,T790M)): 65%
- remaining binding at 0.1 µM (MAP4K2): 78%
- remaining binding at 0.1 µM (BRSK1): 93%
- remaining binding at 0.1 µM (EPHA1): 91%
- remaining binding at 0.1 µM (MLK3): 94%
- remaining binding at 0.1 µM (HIPK4): 79%
- remaining binding at 0.1 µM (FLT3-autoinhibited): 48%
- remaining binding at 0.1 µM (WNK3): 95%
- remaining binding at 0.1 µM (FLT3(D835V)): 3.3%
- remaining binding at 0.1 µM (WEE2): 78%
- remaining binding at 0.1 µM (ERBB2): 96%
- remaining binding at 0.1 µM (JNK2): 50%
- remaining binding at 0.1 µM (BMPR1A): 97%
- remaining binding at 0.1 µM (SIK): 100%
- remaining binding at 0.1 µM (ICK): 80%
- remaining binding at 0.1 µM (ULK2): 83%
- remaining binding at 0.1 µM (MUSK): 90%
- remaining binding at 0.1 µM (GRK2): 90%
- remaining binding at 0.1 µM (PIK3CA(H1047Y)): 91%
- remaining binding at 0.1 µM (CDK9): 99%
- remaining binding at 0.1 µM (RIOK1): 75%
- remaining binding at 0.1 µM (TSSK3): 78%
